From ChEMBL document CHEMBL1649227, “In vitro antiviral activity of V-073 against polioviruses” (Antimicrob Agents Chemother, 2009)
pEC50: −log10 of the molar value. ≈ marks a conversion by molar mass, not a printed value.

Legend:
Enterovirus C [1] = experiment: Antiviral activity against Poliovirus 10243 serotype PV2 obtained from immunodeficient chronic excretor infected in […] LLC-MK2 cells assessed as inhibition of viral-replication induced cytopathic effect; type: functional, organism-based; settings: 10243 serotype PV2, LLC-MK2
Enterovirus C [2] = experiment: Antiviral activity against Poliovirus 10221 serotype PV2 obtained from immunodeficient chronic excretor infected in […] LLC-MK2 cells assessed as inhibition of viral-replication induced cytopathic effect; type: functional, organism-based; settings: 10221 serotype PV2, LLC-MK2
Enterovirus C [3] = experiment: Antiviral activity against Poliovirus 10228 serotype PV2 obtained from immunodeficient chronic excretor infected in […] LLC-MK2 cells assessed as inhibition of viral-replication induced cytopathic effect; type: functional, organism-based; settings: 10228 serotype PV2, LLC-MK2
Enterovirus C [4] = experiment: Antiviral activity against Poliovirus 10226 serotype PV2 obtained from immunodeficient chronic excretor infected in […] LLC-MK2 cells assessed as inhibition of viral-replication induced cytopathic effect; type: functional, organism-based; settings: 10226 serotype PV2, LLC-MK2
Enterovirus C [5] = experiment: Antiviral activity against Poliovirus 10227 serotype PV2 obtained from immunodeficient chronic excretor infected in […] LLC-MK2 cells assessed as inhibition of viral-replication induced cytopathic effect; type: functional, organism-based; settings: 10227 serotype PV2, LLC-MK2
Enterovirus C [6] = experiment: Antiviral activity against Poliovirus Lansing serotype PV2 infected in […] LLC-MK2 cells assessed as inhibition of viral-replication induced cytopathic effect; type: functional, organism-based
Enterovirus C [7] = experiment: Antiviral activity against Poliovirus MEF-1 serotype PV2 infected in […] LLC-MK2 cells assessed as inhibition of viral-replication induced cytopathic effect; type: functional, organism-based; settings: MEF-1 serotype PV2, LLC-MK2
Enterovirus C [8] = experiment: Antiviral activity against Poliovirus P712 serotype PV2 vaccine-derived infected in […] LLC-MK2 cells assessed as inhibition of viral-replication induced cytopathic effect; type: functional, organism-based
Enterovirus C [9] = experiment: Antiviral activity against Poliovirus PV2-P712 serotype PV2 obtained from immunodeficient chronic excretor infected in […] LLC-MK2 cells assessed as inhibition of viral-replication induced cytopathic effect; type: functional, organism-based
Enterovirus C [10] = experiment: Antiviral activity against Poliovirus 10804 serotype PV3 obtained from immunodeficient chronic excretor infected in […] LLC-MK2 cells assessed as inhibition of viral-replication induced cytopathic effect; type: functional, organism-based; settings: 10804 serotype PV3, LLC-MK2
Enterovirus C [11] = experiment: Antiviral activity against Poliovirus 10805 serotype PV3 infected in […] LLC-MK2 cells assessed as inhibition of viral-replication induced cytopathic effect; type: functional, organism-based; settings: 10805 serotype PV3, LLC-MK2
Enterovirus C [12] = experiment: Antiviral activity against Poliovirus Saukett serotype PV3 infected in […] LLC-MK2 cells assessed as inhibition of viral-replication induced cytopathic effect; type: functional, organism-based
Enterovirus C [13] = experiment: Antiviral activity against Poliovirus Leon serotype PV3 infected in […] LLC-MK2 cells assessed as inhibition of viral-replication induced cytopathic effect; type: functional, organism-based
Enterovirus C [14] = experiment: Antiviral activity against Poliovirus PV3-Leon serotype PV3 vaccine-derived infected in […] LLC-MK2 cells assessed as inhibition of viral-replication induced cytopathic effect; type: functional, organism-based
[15] = Selectivity index, ratio of CC50 for human HeLa cells to EC50 for poliovirus; type: toxicity, cell-based; settings: read-out: Ratio CC50/EC50
[16] = Selectivity index, ratio of CC50 for african green monkey BGMK cells to EC50 for poliovirus; type: toxicity, cell-based; settings: read-out: Ratio CC50/EC50
HeLa = experiment: Cytotoxicity against human HeLa cells after 18 to 24 hrs by MTT assay; type: cell-based
[17] = Cytotoxicity against african green monkey BGMK cells after 18 to 24 hrs by MTT assay; type: cell-based; settings: chlorocebus aethiops
Coxsackievirus A9 = experiment: Antiviral activity against Coxsackievirus serotype A9 infected in african green monkey BGMK cells assessed as inhibition of virus induced cytopathic effect after 18 to 24 hrs; type: functional, organism-based; settings: Enterovirus B
Coxsackievirus B1 = experiment: Antiviral activity against Coxsackievirus serotype B1 infected in african green monkey BGMK cells assessed as inhibition of virus induced cytopathic effect after 18 to 24 hrs; type: functional, organism-based; settings: Enterovirus B
Coxsackievirus B2 = experiment: Antiviral activity against Coxsackievirus serotype B2 infected in african green monkey BGMK cells assessed as inhibition of virus induced cytopathic effect after 18 to 24 hrs; type: functional, organism-based; settings: Enterovirus B
Coxsackievirus B3 = experiment: Antiviral activity against Coxsackievirus serotype B3 infected in african green monkey BGMK cells assessed as inhibition of virus induced cytopathic effect after 18 to 24 hrs; type: functional, organism-based; settings: Enterovirus B
Coxsackievirus B4 = experiment: Antiviral activity against Coxsackievirus serotype B4 infected in african green monkey BGMK cells assessed as inhibition of virus induced cytopathic effect after 18 to 24 hrs; type: functional, organism-based; settings: Enterovirus B
Coxsackievirus B5 = experiment: Antiviral activity against Coxsackievirus serotype B5 infected in african green monkey BGMK cells assessed as inhibition of virus induced cytopathic effect after 18 to 24 hrs; type: functional, organism-based; settings: Enterovirus B
enterovirus D68 = experiment: Antiviral activity against Enterovirus serotype 68 infected in african green monkey BGMK cells assessed as inhibition of virus induced cytopathic effect after 18 to 24 hrs; type: functional, organism-based; settings: Enterovirus D
Human enterovirus 70 = experiment: Antiviral activity against Enterovirus serotype 70 infected in african green monkey BGMK cells assessed as inhibition of virus induced cytopathic effect after 18 to 24 hrs; type: functional, cell-based, enterovirus D70; settings: Enterovirus D
Enterovirus A71 = experiment: Antiviral activity against Enterovirus serotype 71 infected in african green monkey BGMK cells assessed as inhibition of virus induced cytopathic effect after 18 to 24 hrs; type: functional, organism-based; settings: Enterovirus A
[18] = Solubility of the compound; type: physicochemical

Structure (SMILES): COc1ccc(OCc2ccc(COc3c(Cl)cccc3Cl)cc2)c(Cl)c1
- pEC50 (Enterovirus C [1]): 7.42
- pEC50 (Enterovirus C [2]): 7.57
- pEC50 (Enterovirus C [3]): 6.90
- pEC50 (Enterovirus C [4]): 7.72
- pEC50 (Enterovirus C [5]): 7.72
- pEC50 (Enterovirus C [6]): 8.15
- pEC50 (Enterovirus C [7]): 7.59
- pEC50 (Enterovirus C [8]): 8.52
- pEC50 (Enterovirus C [9]): 7.80
- pEC50 (Enterovirus C [10]): 7.38
- pEC50 (Enterovirus C [11]): 7.54
- pEC50 (Enterovirus C [12]): 7.21
- pEC50 (Enterovirus C [13]): 6.96
- pEC50 (Enterovirus C [14]): 7.70
- selectivity ratio [15]: 75
- selectivity ratio [16]: 75
- Activity (HeLa): > 50 µg/mL
- Activity [17]: > 50 µg/mL
- pEC50 (Coxsackievirus A9): 5.42
- pEC50 (Coxsackievirus B1): 5.42
- pEC50 (Coxsackievirus B2): 5.42
- pEC50 (Coxsackievirus B3): 5.42
- pEC50 (Coxsackievirus B4): 5.42
- pEC50 (Coxsackievirus B5): 5.42
- MIC90 (enterovirus D68): 1.42 µM (≈ 0.602 µg/mL)
- pEC50 (enterovirus D68; BGMK): 5.46
- MIC90 (Human enterovirus 70): 1.42 µM (≈ 0.602 µg/mL)
- pEC50 (Human enterovirus 70; BGMK): 5.46
- MIC90 (Enterovirus A71): 1.42 µM (≈ 0.602 µg/mL)
- pEC50 (Enterovirus A71; BGMK): 5.46
- solubility [18]: 14 µM (≈ 5.93 µg/mL)
